Results taken from patent US20060067978A1, “Process for preparing poly(vinyl alcohol) drug delivery devices” (Bausch & Lomb Incorporated, priority 2004, published 2006).

Assay: thermal decomposition of the medicament at curing temperature
Assay type: physicochemical
Details: heat stability considered for curing poly(vinyl alcohol) in the presence of the medicament

temperature above which the medicament begins to decompose: about 165 °C
SMILES: CC1(C)O[C@@H]2C[C@H]3[C@@H]4C[C@H](F)C5=CC(=O)C=C[C@]5(C)[C@@]4(F)[C@@H](O)C[C@]3(C)[C@]2(C(=O)CO)O1 [flucinolone acetonide]
